One experiment relates to C57BL/6J mice. Particulars: cited from earlier work.
Experiment [1] relates to behavioral effects of cocaine. The note with it: in vivo; cited from earlier work.
The test system of another experiment is DBA/2J mice. The note with it: cited from earlier work.
The subject of a further experiment is C57BL/6J males. As to the kind of experiment: SEE open-field test with pattern screening of mice injected with anxiolytic and anxiogenic drugs. It counts as in vivo, mouse. The note with it: vs vehicle, diazepam 1 or 2 mg/kg, FG-7142 10 mg/kg, PTZ 20 mg/kg, i.p., training set only. The protocol: Behavioral data for the exemplary embodiments was gathered using the SEE open-field test described above. A mouse was introduced to a 2.5 meter circular pen and allowed to freely explore the pen for 30 minutes while the mouse's location was video-tracked and digitized at a rate of 25-30 Hz with a spatial resolution of approximately 1 cm. The tracked coordinates are stored on a storage device and imported into the SEE software. Using SEE software procedures the path is further smoothed and segmented into stops and progression segments. The data file of each animal thus included 45,000-54,000 data pints of its coordinates in the arena. Because small, local movements during stopping cannot be properly captured using available tracking technology, the analysis was limited to progression segments. Depending on the activity of the test subject, progression segments generally contain […] (100-1000 s) per animal. […]
FIG. 3 is a flow chart for a method of isolating candidate behavioral patterns according to an embodiment of the present invention. In step 302, the data points are quantified for a feature vector. In the embodiment of the present invention being described, each data point observed during the animal progression is quantified using seven “features” (variables) (t, d, v, a, j, h, c). […]
In step 306, the difference in relative frequencies are analyzed. […]

Where [2] appears, read: database having only C57BL/6J mice.

Read-outs that look alike come from different tables or passages of the source.

In the case of `CNC(=O)c1cc2c(cn1)[nH]c1ccccc12` [FG 7142, b-Carboline-3-carboxylic acid N-methylamide], in the experiment on C57BL/6J mice (setting [2]), the path curvature result is “increased”. Regarding `CCCCN1[C@@H]2CC[C@H]1CC(OC(c1ccc(F)cc1)c1ccc(F)cc1)C2` (some centres unmarked) [JHW007], the “antagonizing the behavioral effects of cocaine” value in experiment [1] is recorded as “effective in antagonizing the behavioral effects of cocaine”. As to `O=C(NCCCCN1CCN(c2cccc(Cl)c2Cl)CC1)c1ccc2c(c1)Cc1ccccc1-2` [NGB2904], the “antagonizing the behavioral effects of cocaine” value in experiment [1] is listed as “effective in antagonizing the behavioral effects of cocaine”. For `CC(N)Cc1ccccc1` (centres unmarked) [amphetamine], the “increase in distance traveled” value in the experiment with C57BL/6J mice (C57BL/6J strain (both strains)) and in the experiment with DBA/2J mice (DBA/2J strain (both strains)) was 3 fold throughout. In addition, the path curvature entry with C57BL/6J mice (C57BL/6 mice, genotype comparison DBA/2J vs. C57BL/6J) was “decreased”; in the experiment on DBA/2J mice (BDA/2J mice (so in the source), genotype comparison DBA/2J vs. C57BL/6J), “no effect”. With `CN1C(=O)CN=C(c2ccccc2)c2cc(Cl)ccc21` [diazepam], the “relative frequency of performing first pattern (3,*,*,4,1,*,3)” value in the experiment with C57BL/6J males (FIG. 6A) is recorded as “significantly reduced”. In the experiment with C57BL/6J males (FIG. 6B), the “relative frequency of performing second pattern (3,1,4,*,3,5,*)” value is “dose-dependent effect”. Moreover, in the experiment on C57BL/6J mice (setting [2]), the path curvature result is on record as “dose-dependently decreased”.

With `C1CCc2nnnn2CC1` [pentylenetetrazole], the path curvature result in the experiment with C57BL/6J mice (setting [2]) was “increased”.
